Source: publication PMC7957563, “The Novel benzamide Derivative, VKNG-2, Restores the Efficacy of Chemotherapeutic Drugs in Colon Cancer Cell Lines by Inhibiting the ABCG2 Transporter” (International Journal of Molecular Sciences, 2021)

Molecular target: T1, ABCG2 transporter (Homo sapiens, UniProt Q9UNQ0)
T1 construct: ABCG2-overexpressing cell membranes
T1 sequence (Q9UNQ0 1-655): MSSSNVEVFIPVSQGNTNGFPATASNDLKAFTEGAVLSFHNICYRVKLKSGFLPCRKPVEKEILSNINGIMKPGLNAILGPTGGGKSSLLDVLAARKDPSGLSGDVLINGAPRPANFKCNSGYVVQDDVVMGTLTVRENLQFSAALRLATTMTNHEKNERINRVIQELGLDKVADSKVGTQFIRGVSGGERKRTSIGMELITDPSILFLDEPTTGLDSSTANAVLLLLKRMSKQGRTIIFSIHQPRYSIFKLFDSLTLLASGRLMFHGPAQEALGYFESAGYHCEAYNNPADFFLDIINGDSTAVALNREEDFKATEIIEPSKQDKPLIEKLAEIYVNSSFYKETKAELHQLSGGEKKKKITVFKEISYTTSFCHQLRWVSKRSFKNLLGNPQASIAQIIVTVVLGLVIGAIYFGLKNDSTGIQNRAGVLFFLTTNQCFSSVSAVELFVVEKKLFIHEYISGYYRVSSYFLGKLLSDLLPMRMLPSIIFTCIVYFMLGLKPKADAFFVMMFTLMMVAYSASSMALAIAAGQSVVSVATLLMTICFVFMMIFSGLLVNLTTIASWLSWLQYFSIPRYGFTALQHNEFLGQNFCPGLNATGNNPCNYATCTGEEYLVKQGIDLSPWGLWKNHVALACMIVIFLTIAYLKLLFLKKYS
Assay: vanadate-sensitive ATPase stimulation in ABCG2-overexpressing membranes; [3H]-mitoxantrone efflux inhibition in S1-M1-80 cells
Format: biochemical

Question: How did the EC50 turn out when `CCCc1ccc(NC(=O)c2ccccc2NC(=O)Nc2cccc([N+](=O)[O-])c2)cc1` [VKNG-2, 2-(3-(3-Nitrophenyl)ureido)-N-(4-propylphenyl)benzamide] was run?
Answer: 2300 nM
